# Test results from patent US6080746A, “Methods and compositions for the prophylaxis and treatment of cytomegalovirus infections” (priority 1991, dated 2000).
# Experiments:
# cytomegalovirus = conditions: Rosecan et al. 1986 / reported; cited from earlier work
# [1] = test system: human cytomegalovirus (strain AD 169); experiment: Inhibition of human cytomegalovirus in MRC5 cells by plaque reduction assay (reduction of CPE, MIC50; Table 1); assay type: cell-based; conditions: for inhibition at 0.032 µg/mL / inhibition at 0.1 µg/mL / inhibition at 0.32 µg/mL / inhibition at 1 µg/mL / inhibition at 3.2 µg/mL / inhibition at 10 µg/mL: Human betaherpesvirus 5, MRC5, treatment 0 hr postinfection, read-out: Reduction (%) of CPE at Time of Harvest; for inhibition at 0.032 µg/mL: 0.032 μg/ml; for inhibition at 0.1 µg/mL: 0.1 μg/ml; for inhibition at 0.32 µg/mL: 0.32 μg/ml; for inhibition at 1 µg/mL: 1.0 μg/ml; for inhibition at 3.2 µg/mL: 3.2 μg/ml; for inhibition at 10 µg/mL: 10 μg/ml
# Text: (§1) In each case, drug treatment began 0 hr. postinfection.
# [2] = test system: human cytomegalovirus (strain AD 169); experiment: CMV yield in MRC5 cells (Table 1); assay type: cell-based
# Text: as §1
# [3] = test system: human diploid embryonic lung cells (MRC5); experiment: Drug cytotoxicity (gross morphology) in MRC5 cells (Table 1)
# Text: Also evaluated under the same conditions were prior art drugs Ara-A and ganciclovir (DHPG). In each case, drug treatment began 0 hr. postinfection.
# HCMV [4] = experiment: Virus yield-reduction assay, combination with DHPG on HCMV replication in MRC5 cells (Table 2); assay type: cell-based, human CMV; conditions: DHPG 0
# Text: Effect of Combination Treatment^a With (±)-2'-CDG and
# DHPG on HCMV Replication in MRC5 Cells
# (§2) (Virus Yield-Reduction Assay)
# HCMV [5] = experiment: Virus yield-reduction assay, combination with papaverine on HCMV replication in MRC5 cells (Table 3); assay type: cell-based, human CMV; conditions: papaverine (DHPG) 0
# Text: The following results were obtained in testing mixtures of racemic 2'-CdG and papaverine under the same conditions:
# Effect of Combination Treatment^a With Papaverine and
# (±)-2'-CDG and on HCMV Replication in MRC5 Cells
# as §2
# (§3) ^a Drug treatment began immediately following the virus adsorption
# CMV [6] = experiment: Reduction of CPE in CMV-infected MRC5 cell monolayer cultures (Tables 4 and 5); assay type: cell-based; conditions: Human betaherpesvirus 5, MRC5, read-out: Reduction (%) of CPE by CDG at Time of Harvest
# Protocol: (§4) The effectiveness of racemic 2'-CdG and of D-2'-CdG on CMV yields in MRC5 cell monolayer cultures was determined by a plaque assay with the results set forth in Tables 4 and 5:
# as §3
# (§5) ^a Drug treatment began immediately following the 1 1/2 hour
# CMV [7] = experiment: CMV yields in MRC5 cell monolayer cultures by plaque assay (Tables 4 and 5); assay type: cell-based; conditions: virus control 5.5
# Protocol: as §4, §3, §5
# MRC5 cells = experiment: Drug cytotoxicity (gross morphology) in MRC5 cell monolayer cultures (Tables 4 and 5); assay type: cell-based, human
# Protocol: as §4, §3, §5
# CMV [8] = experiment: MIC50 against CMV in MRC5 cells; assay type: cell-based; conditions: Human betaherpesvirus 5
# human CMV = experiment: Plaque reduction assay against human CMV (ED50); assay type: cell-based
# [9] = 0.1 μg/ml, virus control 5.5 (DHPG 5.3)
# [10] = 0.32 μg/ml, virus control 5.5 (DHPG 5.3)
# [11] = 1.0 μg/ml, virus control 5.5 (DHPG 5.3)
# [12] = 3.2 μg/ml, virus control 5.5 (DHPG 5.3)
# [13] = 10 μg/ml, virus control 5.5 (DHPG 5.3)
# [14] = (±)-2'-CDG 0.32 (mM as printed)
compound,measurement,setting,value
alpha-interferon,treatment of cytomegalovirus retinitis,cytomegalovirus,unsuccessful
Nc1nc2c(ncn2[C@@H]2C[C@H](CO)[C@@H](O)C2)c(=O)[nH]1 (relative stereo) [±2'-CdG],inhibition at 0.032 µg/mL,[1],0%
same,inhibition at 0.1 µg/mL,[1],0%
same,inhibition at 0.32 µg/mL,[1],20%
same,inhibition at 1 µg/mL,[1],95%
same,inhibition at 3.2 µg/mL,[1],100%
same,inhibition at 10 µg/mL,[1],100%
same,CMV Yield,"[2]; 0.032 μg/ml, virus control 5.5",5.4 log10 CCID50 /ml
same,CMV Yield,[2]; [9],5.0 log10 CCID50 /ml
same,CMV Yield,[2]; [10],4.5 log10 CCID50 /ml
same,CMV Yield,[2]; [11],3.6 log10 CCID50 /ml
same,CMV Yield,[2]; [12],1.0 log10 CCID50 /ml
same,CMV Yield,[2]; [13],0 log10 CCID50 /ml
same,Drug Cytotoxicity (gross morphology),[3]; 0.032 μg/ml,0
same,Drug Cytotoxicity (gross morphology),[3]; 0.1 μg/ml,0
same,Drug Cytotoxicity (gross morphology),[3]; 0.32 μg/ml,0
same,Drug Cytotoxicity (gross morphology),[3]; 1.0 μg/ml,0
same,Drug Cytotoxicity (gross morphology),[3]; 3.2 μg/ml,v. sl. toxic
same,Drug Cytotoxicity (gross morphology),[3]; 10 μg/ml,sl. toxic
same,Drug Cytotoxicity (gross morphology),[3]; 32 μg/ml,toxic
same,Reduction in CMV Yield,HCMV [4]; (±)-2'-CDG 0.1 (mM as printed),0.1 Log10 PFU/ML
same,Reduction in CMV Yield,HCMV [4]; [14],0.5 Log10 PFU/ML
same,Reduction in CMV Yield,HCMV [4]; (±)-2'-CDG 1.0 (mM as printed),0.6 Log10 PFU/ML
same,Reduction in CMV Yield,HCMV [4]; (±)-2'-CDG 3.2 (mM as printed),1.0 Log10 PFU/ML
same,Reduction in CMV Yield,HCMV [5]; [14],0.7 Log10 PFU/ML
same,Reduction in CMV Yield,HCMV [5]; (±)-2'-CDG 1.0 (mM as printed),1.0 Log10 PFU/ML
same,Reduction in CMV Yield,HCMV [5]; (±)-2'-CDG 3.2 (mM as printed),1.7 Log10 PFU/ML
same,Reduction in CMV Yield,HCMV [5]; (±)-2'-CDG 10.0 (mM as printed),2.7 Log10 PFU/ML
same,inhibition at 0.032 µg/mL,"CMV [6]; Table 4, 0.032 μg/mL",0%
same,inhibition at 0.1 µg/mL,"CMV [6]; Table 4, 0.1 μg/mL",0%
same,inhibition at 0.32 µg/mL,"CMV [6]; Table 4, 0.32 μg/mL",20%
same,inhibition at 1 µg/mL,"CMV [6]; Table 4, 1.0 μg/mL",95%
same,inhibition at 3.2 µg/mL,"CMV [6]; Table 4, 3.2 μg/mL",100%
same,inhibition at 10 µg/mL,"CMV [6]; Table 4, 10 μg/mL",100%
same,CMV Yield,"CMV [7]; Table 4, 0.032 μg/mL",5.4 log10 CCID50 /mL
same,CMV Yield,"CMV [7]; Table 4, 0.1 μg/mL",5.0 log10 CCID50 /mL
same,CMV Yield,"CMV [7]; Table 4, 0.32 μg/mL",4.5 log10 CCID50 /mL
same,CMV Yield,"CMV [7]; Table 4, 1.0 μg/mL",3.6 log10 CCID50 /mL
same,CMV Yield,"CMV [7]; Table 4, 3.2 μg/mL",1.0 log10 CCID50 /mL
same,CMV Yield,"CMV [7]; Table 4, 10 μg/mL",0 log10 CCID50 /mL
same,Drug Cytotoxicity (gross morphology),"MRC5 cells; Table 4, 0.032 μg/mL",0
same,Drug Cytotoxicity (gross morphology),"MRC5 cells; Table 4, 0.1 μg/mL",0
same,Drug Cytotoxicity (gross morphology),"MRC5 cells; Table 4, 0.32 μg/mL",0
same,Drug Cytotoxicity (gross morphology),"MRC5 cells; Table 4, 1.0 μg/mL",0
same,Drug Cytotoxicity (gross morphology),"MRC5 cells; Table 4, 3.2 μg/mL",v. sl.
same,Drug Cytotoxicity (gross morphology),"MRC5 cells; Table 4, 10 μg/mL",sl. toxicity
same,Drug Cytotoxicity (gross morphology),"MRC5 cells; Table 4, 32 μg/mL",toxic
same,IC50,CMV [8],0.069 µg/mL
"CC(C)C(=O)OC[C@H]1O[C@@H](n2cnc3c(=O)[nH]c(N)nc32)C[C@@H]1OC(=O)C(C)C (racemic) [racemic 2'-deoxyguanosine-3',5'-0-diisobutyrate, 2'-deoxyguanosine-3',5'-0-diisobutyrate]",ED50,human CMV,3.9 µg/mL
Nc1nc(N)c2ncn([C@@H]3C[C@H](CO)[C@@H](O)[C@H]3O)c2n1 (relative stereo) [DAPR],IC50,"[1]; Human betaherpesvirus 5, MRC5, tested under the same conditions as Table 1",8.7 µg/mL
same,therapeutic index,[1]; tested under the same conditions as Table 1,40
"Nc1nc(N)c2ncn([C@@H]3C[C@H](CO)[C@@H](O)C3)c2n1 (relative stereo) [±C-2,6'-DAPdR]",inhibition at 0.032 µg/mL,[1],0%
same,inhibition at 0.1 µg/mL,[1],0%
same,inhibition at 0.32 µg/mL,[1],25%
same,inhibition at 1 µg/mL,[1],95%
same,inhibition at 3.2 µg/mL,[1],100%
same,inhibition at 10 µg/mL,[1],100%
same,CMV Yield,"[2]; 0.032 μg/ml, virus control 5.5",5.3 log10 CCID50 /ml
same,CMV Yield,[2]; [9],5.0 log10 CCID50 /ml
same,CMV Yield,[2]; [10],4.0 log10 CCID50 /ml
same,CMV Yield,[2]; [11],3.4 log10 CCID50 /ml
same,CMV Yield,[2]; [12],0 log10 CCID50 /ml
same,CMV Yield,[2]; [13],0 log10 CCID50 /ml
same,Drug Cytotoxicity (gross morphology),[3]; 0.032 μg/ml,0
same,Drug Cytotoxicity (gross morphology),[3]; 0.1 μg/ml,0
same,Drug Cytotoxicity (gross morphology),[3]; 0.32 μg/ml,0
same,Drug Cytotoxicity (gross morphology),[3]; 1.0 μg/ml,0
same,Drug Cytotoxicity (gross morphology),[3]; 3.2 μg/ml,v. sl. toxic
same,Drug Cytotoxicity (gross morphology),[3]; 10 μg/ml,sl. toxic
same,Drug Cytotoxicity (gross morphology),[3]; 32 μg/ml,toxic
